Test results as given in US6321750A, “Condom lubricants with zinc salts as anti-viral additives” (priority 1999, dated 2001).
Like-named read-outs stand apart in the source and are kept apart here.

Columns and labels:
[1] = test system: genitals (both persons, during intercourse); assay: Irritation test of lubricant during intercourse / human volunteers; format: in vivo; conditions: human, in vivo
Text: Subsequently, the gel formulation was applied topically and used as a sexual lubricant during intercourse. Both people wiped off the excess with a tissue after intercourse, but neither person showered or washed off the lubricant until the following day. It caused no irritation to either person.

[2] = cited from earlier work; for ionization rate: in aqueous solution; for Reported pK values: values below 2 refer to release of a single carboxy anion
forearm = assay: Irritation test on forearm / skin; format: in vivo, human; conditions: in vivo
Procedure: Zinc acetate was purchased from Pfaltz and Bauer (Waterbury, Connecticut). About 0.5 grams were mixed with several drops of distilled water at room temperature. […] The aqueous mixture was rubbed into an area about 3 cm in diameter on the forearm of […] and caused no irritation. Subsequently, about 0.5 grams of the salt were dissolved in a few drops of distilled water, then 10 ml K-Y Lubricating Jelly (sold by Johnson and Johnson, New Brunswick, N.J.) was added to form a gel mixture containing about 5% zinc acetate (w/v). This commercially available mixture contains purified water, hydroxyethyl-cellulose as a thickening agent, glycerin as a lubricant, glucono-delta-lactate to prevent crystallization, chlorhexidine gluconate as a preservative, and sodium hydroxide to reduce the acidity.

[3] = Acidity tests: pH of 5% w/v zinc salt solutions; conditions: for pH of solution (rounded) / pH of solution: 5% w/v in distilled deionized water; for pH of solution: 0.05 subtracted from meter reading, approximately accurate
male genitals = assay: Irritation test on male genitals / urethra; conditions: in vivo
Procedure: In all examples, the test subjects were a monogamous married couple, free of genital herpes and all other known sexually transmitted viruses.
The mixture of zinc acetate in K-Y Lubricating Jelly was tested on the male genitals, passively at first and then with active rubbing.
About 0.5 grams were dissolved in several drops of distilled water and tested on the forearm and genitals.

vagina = assay: Irritation test in shallow region of the vagina (volunteer); format: in vivo, human; conditions: human, in vivo
[4] = test system: genitals (both persons, during intercourse); conditions: cited from earlier work
H-9 lymphocytes = assay: Toxicity to lymphocytes; format: cell-based; conditions: at the concentrations of interest
Procedure: In a first set of tests, 20 mg of zinc acetate powder (ZnAc, MW 183.4) was mixed in 1 ml RPMI cell culture medium (Whittaker Corp.). This 2% (w/v) salt mixture contained 7 mg/ml elemental Zn. […] Therefore, a small quantity of HCl was added until the mixture became clear; the pH was about 5.5. The Zn concentration was reduced by half (and the pH was raised somewhat) when an equal volume (1 ml) of cell-free high-titer HIV-1 viral stock was added. The zinc/virus mixture was stirred and incubated for 2 hours at 37° C. (i.e., normal body temperature).
Following this first incubation step, the zinc/virus mixtures were diluted at 1:10, 1:30, and 1:100 ratios using culture medium, and aliquots were added to equal volumes of culture media containing H-9 lymphocytes that had been pretreated overnight with 2 μg/ml Polybreen. The lymphocyte mixtures were incubated for three hours at 37° C.; zinc concentrations during this step were 180, 60, and 18 μg/ml for the 1:10, 1:30, and 1:100 dilutions.
A 2 ml aliquot from each dilution was mixed with an equal volume of 3% ZnAc dissolved in sterile distilled water; after mixing, the zinc concentration was 5.3 mg/ml Zn. These mixtures were incubated for 2 hours, then diluted with culture medium at 1:30, 1:100, and 1:1000 to reduce the toxicity of the zinc to lymphocytes. Four ml of lymphocytes were mixed with 4 ml of each zinc/virus mixture. The zinc/virus/cell mixtures were incubated at 37° C. for 3 hours; zinc concentrations were 88, 27, and 2.7 μg/ml in the 30, 100, and 1000 dilutions.

sperm cells = conditions: undiluted semen; Eliasson 1971, Paz et al 1977; cited from earlier work
[5] = test system: herpes simplex virus (HSV); assay: Herpes simplex virus plaque assay on CV-1 cells; conditions: in vitro tests
Procedure: The first step of this assay models what happens inside the vaginal cavity. In this part of the assay, the candidate anti-viral agent (such as a zinc salt) was mixed and incubated for a relatively brief period with HIV particles. […] In subsequent tests using herpes viruses (which are much easier to work with than HIV), a range of first-stage incubation times were tested, ranging from 2 hours to only 5 minutes.
Susceptible lymphocyte cells were then added to this mixture, and a second incubation step was carried out for a number of days (20 days or more, when HIV was tested; 3 days, when herpes viruses were tested in plaque assays) to determine whether zinc-treated or untreated viruses would infect the lymphocytes.
After those toxicity tests had been evaluated, the viral inhibition tests were done on CV-1 cells, an immortalized cell line originally from a monkey kidney, which is highly and reliably susceptible to herpes virus infection, and which is widely used in in vitro tests on herpes viruses.
Tests were also carried out using a range of zinc salt concentrations, from 50 mM down to 5 mM, using constant 2 hour incubation periods.

Which “irritation in initial tests” value [1] does the source give for [Cl-].[Cl-].[Zn+2] [Zinc chloride] here?
The value was “significant irritation”.

And the ionization rate [2]?
Its ionization rate is roughly 100%.

And the “burning, forearm” value (forearm)?
Its value is “immediately caused a burning sensation”.

Which results are given for O=C[O-].O=C[O-].[Zn+2] [Zinc formate]?
Reported pK values: pK1 ([2]; in water): 0.6; Reported pK values: pK2 ([2]; in water): 0.95

With O=C(O)CO.O=C(O)CO.[Zn] [Zinc glycolate] as the compound, how does the “Reported pK values” ([2]; in water) read?
The value was 1.92.

With CC(O)C(=O)[O-].CC(O)C(=O)[O-].[Zn+2] (stereo not shown) [Zinc lactate] as the compound, how does the MCC (several cell lines) read?
The MCC was roughly 200 mM.

And the irritation during intercourse [1]?
Its irritation during intercourse is “no irritation of any sort”.

What about the “pH of solution (rounded)” value [3] of the same compound?
Its value is “about 6.2”.

What about the pH of solution [3] of the same compound?
The pH of solution was 6.16.

And the “Reported pK values” ([2]; in water)?
The value was 1.86.

For CCC(=O)[O-].CCC(=O)[O-].[Zn+2] [Zinc propionate], which “irritation, male genital skin” value (male genitals) is on record?
Its value is “no irritation”.

And the “irritation, male genitals” value (male genitals)?
Its value is “did not cause any irritation”.

What about the “irritation, urethra” value (male genitals) of the same compound?
The value was “substantial irritation”.

What about the “irritation, vagina” value (vagina) of the same compound?
The value was “vaginal irritation”.

And the “irritation, vagina / female genitals” value (vagina)?
The value was “no irritation”.

And the “irritation of gel / genital lubricant formulations” value [1]?
Its value is “did not cause any irritation”.

And the “Reported pK values” ([2]; in water)?
The value was 1.01.

And the “burning and irritation to the skin” value (forearm)?
The value was “substantial amount of burning and irritation to the skin”.

What about the “irritation, forearm” value (forearm) of the same compound?
Its value is “no irritation”.

With O=S(=O)([O-])[O-].[Zn+2] [Zinc sulfate] as the compound, how does the “irritation (prior art / known)” value ([4]; human, in vivo) read?
Its value is “substantial burning and irritation in most people”.

What about the “irritation, male genital skin” value (male genitals) of the same compound?
The value was “did not cause any irritation”.

What about the “irritation, urethra” value (male genitals) of the same compound?
The value was “did not cause any irritation”.

And the “irritation, person, passive test” value (vagina)?
Its value is “tingling, burning sensation”.

And the “irritation in initial tests” value [1]?
Its value is “significant irritation”.

What about the “irritation, human volunteers” value [1] of the same compound?
The value was “no noticeable irritation”.

What about the “acidity relative to zinc acetate or lactate solution” value ([3]; 5% solutions) of the same compound?
Its value is “about 4 times”.

What about the “pH drop relative to zinc acetate or lactate solution” value ([3]; 5% solutions, from 6.2 to 5.6) of the same compound?
The value was 0.6.

And the “pH of solution (rounded)” value [3]?
The value was “about 5.6”.

What about the pH of solution [3] of the same compound?
Its pH of solution is 5.58.

And the ionization rate [2]?
Its ionization rate is roughly 100%.

And the “irritation, forearm” value (forearm)?
Its value is “did not cause any irritation”.

Which toxicity to lymphocytes (H-9 lymphocytes) does the source give for [Zn+2] [zinc] here?
Its toxicity to lymphocytes is “toxic to lymphocytes”.

What about the “effect on sperm respiratory activity and motility” value (sperm cells) of the same compound?
Its value is “suppresses the respiratory activity and motility of sperm cells”.

And the “effect on physical irritation caused by nonoxynol” value [1]?
Its value is “can actually reduce the physical irritation that is caused by nonoxynol”.

With Zinc butyrate as the compound, how does the “Reported pK values” ([2]; in water) read?
The value was 1.00.

Which “irritation, male genitals” value (male genitals) does the source give for Zinc gluconate here?
The value was “no irritation”.

What about the MCC (several cell lines) of the same compound?
The MCC was roughly 200 mM.

What about the “irritation, vagina / female genitals” value (vagina) of the same compound?
Its value is “no irritation”.

And the abrasion during intercourse [1]?
The abrasion during intercourse was “no abrasion was noticeable”.

And the “anti-viral effect against herpes viruses” value [5]?
Its value is “clearly effective in preventing infection by herpes viruses”.

And the “Reported pK values” ([2]; in water)?
The value was 1.70.

And the “irritation, forearm” value (forearm)?
Its value is “no irritation”.

For Zinc glycerate, which “Reported pK values” ([2]; in water) is on record?
Its value is 1.80.

Which “irritation (prior art / known)” value ([4]; literature or general knowledge) does the source give for nonoxynol here?
Its value is “cause irritation in many users”.

With octoxynol as the compound, how does the “irritation (prior art / known)” value ([4]; human, in vivo) read?
Its value is “cause irritation in many users”.
